In patent US20100055198A1, “HARD SURFACE CLEANING AND DISINFECTING COMPOSITION” (Arkema Inc., priority 2007, published 2010):

What was measured:
S. aureus = assay: AOAC Use-Dilution disinfection test, S. aureus; assay type: cell-based, Staphylococcus aureus
Protocol: (§1) The testing was performed in accordance with the protocols outlined in “Use-dilution Method”, Protocols 955.14, 955.15 and 964.02 described in Chapter 6 of “Official Methods of Analysis”, 16th Edition, of the Association of Official Analytical Chemists; “Germicidal and Detergent Sanitizing Action of Disinfectants”, 960.09 described in Chapter 6 of “Official Methods of Analysis”, 15th Edition, of the Association of Official Analytical Chemists; or American Society for Testing and Materials (ASTM) E 1054-91 the contents of which are herein incorporated by reference. This test is also commonly referred to as the “AOAC Use-Dilution Test Method”. Testing was conducted starting with 10^5 to 10^6 CFU/ml bacteria concentration, 10 ml of the cleaning composition described in each example and test protocol outlined in the “AOAC Use-dilution Method”.

P. aeruginosa = assay: AOAC Use-Dilution disinfection test, P. aeruginosa; assay type: cell-based, Pseudomonas aeruginosa
Protocol: as §1

S. choleraesuis = assay: AOAC Use-Dilution disinfection test, S. choleraesuis; assay type: cell-based, Salmonella choleraesuis
Protocol: as §1

[1] = tested on: gram-positive and gram-negative bacteria; assay: Disinfection properties overall (AOAC Use-Dilution); assay type: cell-based; settings: low concentration (e.g. 3%), pH 7
Protocol: as §1

[2] = pH 4.4, time 0 min (starting count)
[3] = pH 7.7, time 0 min (starting count)

| Compound | killing gram positive bacteria (Staphylococus aureus), in words (S. aureus; acidic pH) | killing gram positive bacteria (Staphylococus aureus), in words (S. aureus; neutral pH) | S. aureus (CFU/ml) (S. aureus; [2]) | S. aureus (CFU/ml) (S. aureus; pH 4.4, time 5 min, average from two replicates) | S. aureus (CFU/ml) (S. aureus; [3]) | S. aureus (CFU/ml) (S. aureus; pH 7.7, time 5 min) | P. aeruginosa (CFU/ml) (P. aeruginosa; [2]) | P. aeruginosa (CFU/ml) (P. aeruginosa; [3]) | S. choleraesuis (CFU/ml) (S. choleraesuis; [2]) | S. choleraesuis (CFU/ml) (S. choleraesuis; [3]) | disinfectant property, in words [1] |
| --- | --- | --- | --- | --- | --- | --- | --- | --- | --- | --- | --- |
| hydrogen peroxide [3% H2O2] | not effective | not effective | 1.6 × 10^5 CFU/ml | 4.3 × 10^3 *^1 CFU/ml | 1.3 × 10^5 CFU/ml | 6.0 × 10^2 CFU/ml | 1.7 × 10^5 CFU/ml | 1.5 × 10^5 CFU/ml | 2.9 × 10^5 CFU/ml | 2.4 × 10^5 CFU/ml |  |
| CC(C)O [isopropanol, Isopropanol] |  |  |  |  |  |  |  |  |  |  | slight disinfectant property |
